“Also recorded” adds a separate entry of the source.
How the values were obtained:
[1] = system: neuroblastoma SH-SY5Y tumor cell line; assay: MTT antiproliferative assay; type: cell-based, Human; settings: SH-SY5Y cells; for inhibition at 25 µM / IC50: Homo sapiens; for inhibition at 25 µM: after 72 h, read-out: inhibition of cell proliferation; for inhibition at 25 µM / antiproliferative effect (in words): MTT; for IC50: MTT test; for antiproliferative effect (in words): 1–50 µM, 24, 48 and 72 h
Protocol: Human neuroblastoma cell line SH-SY5Y was originally obtained from ATCC (Rockville, MD, USA). Cells were cultured as previously reported. Briefly, we employed RPMI 1640 medium with 10% heat-inactivated fetal bovine serum (FBS), 2 mM L-glutamine, 1 mM sodium pyruvate, 100 IU/mL penicillin and 100 μg/mL streptomycin at 37 °C in a humidified atmosphere with 5% CO2. All the reagents for cell culture were from Carlo Erba (Milan, Italy). For biological investigations, compounds 1a, 2 and 3 were solubilized in dimethyl sulfoxide (DMSO) to obtain stock solutions at a final concentration of 50 mM that were stored at −20 °C. Just prior use, aliquots were diluted in medium to the final concentrations ranging from 1 to 50 μM.
The abovementioned compounds were evaluated by the MTT assay to assess their anti-proliferative activity, as reported by Ferlazzo et al. Cells were seeded at a density of 5 × 10^3 cell/well in 96-well plates and incubated overnight at 37 °C. In treated cells, the medium was then replaced with a fresh one in which the compounds were diluted from 1 to 50 µM. Untreated cells together with ones exposed to DMSO 0.1% served as control and solvent control, respectively. After incubation for 24, 48, and 72 h, plates were firstly centrifuged, then the medium was removed, and a solution of 3-(4,5-dimethylthiazole-2-yl)-2,5-diphenyltetrazolium bromide (MTT; Sigma-Aldrich, Milan, Italy) at a concentration of 0.5 mg/mL in fresh medium (w/o phenol red) was added. Plates were incubated for further 4h. Afterward, MTT solution was removed, and the obtained formazan crystals were solubilized in 100 µL of a lysis buffer consisting of HCl/isopropanol 0.1 N and regularly shaken. Optical density was measured employing a microplate reader (iMark™, Bio-Rad Laboratories, Milan, Italy) at 595 nm. All experiments were carried out in eight replicates for three times. Results are expressed as the percentage of viable cells compared to untreated cells.

[2] = system: HDAC (HeLa nuclear extract); assay: HDAC Inhibitor Drug Screening Kit (fluorometric, Biovision K340-100); type: biochemical; settings: for Inhibition at 500 μM (%) / Inhibition at 10 μM (%): mean of 3 independent measurements, SD <10%; for IC50: HDAC inhibitory activity
Protocol: The N^1-phenylpyrazole derivatives 1a (the isomer with the connection unit at C5) and 1b (the isomer with the connection unit at C3) were evaluated for their ability to inhibit the HDAC activity to have a preliminary insight about the SAR of this set of compounds. […] Therefore, the development of the other two derivatives of this class, i.e., the p-CN-phenyl derivative 2 and the p-Br-phenyl derivative 3, was focused on the single isomer C5-substituted. As for 1a, the detected inhibitory activity of 2 and 3 was in the low micromolar range (6.3 µM and 1.6 µM, respectively; Table 1).

Row | IC50 [1] [µM] | IC50 [2] [µM] | Structure (SMILES) | inhibition at 25 µM [1] [%] | Inhibition at 500 μM (%) [2] [%] | Inhibition at 10 μM (%) [2] [%] | antiproliferative effect (in words) [1] | antiproliferative effect (in words) ([1]; listed as 2a)
1 | 5.34 | 7.1 ± 0.5 | Cc1cc(C(=O)Nc2ccc(/C=C/C(=O)NO)cc2)n(-c2ccccc2)n1 [Compound 1a, (E)-N-(4-(3-(hydroxyamino)-3-oxoprop-1-enyl)phenyl)-3-methyl-1-phenyl-1H-pyrazole-5-carboxamide] | > 75 | 86 |  |  | 
2 |  | > 500 | Cc1cc(C(=O)Nc2ccc(/C=C/C(=O)NO)cc2)nn1-c1ccccc1 [Compound 1b, (E)-N-(4-(3-(hydroxyamino)-3-oxoprop-1-enyl)phenyl)-5-methyl-1-phenyl-1H-pyrazole-3-carboxamide] |  | 30 | 6 |  | 
3 |  | 6.3 ± 0.3 | Cc1cc(C(=O)Nc2ccc(/C=C/C(=O)NO)cc2)n(-c2ccc(C#N)cc2)n1 [Compound 2, (E)-1-(4-cyanophenyl)-N-(4-(3-(hydroxyamino)-3-oxoprop-1-enyl)phenyl)-3-methyl-1H-pyrazole-5-carboxamide] |  | 88 | 51 | inactive | None of the tested concentrations; also recorded: No antiproliferative effect
4 | 5.61 | 1.6 ± 0.2 | Cc1cc(C(=O)Nc2ccc(/C=C/C(=O)NO)cc2)n(-c2ccc(Br)cc2)n1 [Compound 3, (E)-1-(4-bromophenyl)-N-(4-(3-(hydroxyamino)-3-oxoprop-1-enyl)phenyl)-3-methyl-1H-pyrazole-5-carboxamide] | > 75 | 88 | 74 |  | 
5 |  | 155 ± 2.8 | O=C(/C=C/c1ccc(NC(=O)c2cc(-c3ccccc3)[nH]n2)cc1)NO [Compound 4, (E)-N-(4-(3-(hydroxyamino)-3-oxoprop-1-enyl)phenyl)-5-phenyl-1H-pyrazole-3-carboxamide] |  | 71 | 13 |  | 
6 |  | > 500 | O=C(/C=C/c1ccc(NC(=O)c2cc(-c3ccc(Br)cc3)[nH]n2)cc1)NO [Compound 5, (E)-5-(4-bromophenyl)-N-(4-(3-(hydroxyamino)-3-oxoprop-1-enyl)phenyl)-1H-pyrazole-3-carboxamide] |  | 15 |  |  | 
7 |  | 46.5 ± 1.5 | O=C(/C=C/c1ccc(NC(=O)c2n[nH]c3c2Cc2ccccc2-3)cc1)NO [Compound 6, (E)-N-(4-(3-(hydroxyamino)-3-oxoprop-1-enyl)phenyl)-1,4-dihydroindeno[1,2-c]pyrazole-3-carboxamide] |  | 87 | 29 |  | 

Row | Structure (SMILES) | IC50 [1] [µM] | IC50 [2] [µM] | inhibition at 25 µM [1] [%] | Inhibition at 500 μM (%) [2] [%] | Inhibition at 10 μM (%) [2] [%] | antiproliferative effect (in words) [1] | antiproliferative effect (in words) ([1]; listed as 2a)
8 | CC(/C=C/C(=O)NO)=C\[C@@H](C)C(=O)c1ccc(N(C)C)cc1 [TSA, Trichostatin A, reference compound] |  | 3.4 ± 0.2 |  |  |  |  | 
